Each structure is given as a SMILES string.

A short description of data set [1]: Response of probe to Fe(II). Here is the method:
FIG. 8. Ratiometric fluorescence turn-on response of HyP-1 (2 μM) in the presence of FeSO4 (20 μM) and FeSO4 (20 μM)+GSH (1 mM) in 50 mM HEPES buffer (pH 7.4, 0.1% v/v CrEL) after 1 h incubation at 37° C.
Fe(II)-mediated reduction of N-oxides has been exploited previously for the development of several fluorescent probes for this metal ion, thus it was critical for us to determine the response of HyP-1 to Fe(II). […] However, because intracellular concentrations of free iron are low due to sequestration by ferritin, this was not anticipated to be a major source of HyP-1 activation in vivo.

A short description of data set [2]: Stability in human plasma. Format: in vitro ADME. The note with it: 10 μM solution supplemented with human plasma, 37° C., 3 hours. Here is the method:
FIG. 12. Fluorescence intensity (Ex.=670 nm) of HyP-1 (2 μM) at the indicated time points during incubation in 0.1 M potassium phosphate buffer (pH 7.4) supplemented with human plasma (20% v/v) at 37° C. for 3 h.
(§1) In addition to Fe(II), the response of HyP-1 to a variety of alkali, alkaline earth and transition metals was also determined. […] To further evaluate the stability of HyP-1, a 10 μM solution of the probe was exposed to ambient light and temperature for up to 5 days. Additionally, a 10 μM solution of HyP-1 supplemented with human plasma was incubated at 37° C. for 3 hours. […] As mentioned previously, a major limitation of 2-nitroimidazole-based hypoxia probes is their susceptibility to oxygen-independent reduction via two-electron processes, such as by bacterial nitroreductases. […] Finally, the photostability of both HyP-1 and red-HyP-1 was evaluated via continuous PA image acquisition at 770 nm over the course of 1 hour.

Data set [3] is described as follows: Photostability under continuous PA image acquisition. As to conditions: 770 nm, 1 hour. Format: physicochemical. As for the experimental part: FIG. 16. PA signal (770 nm) at the indicated time points of HyP-1 (dots) and red-HyP-1 (squares) solutions (10 μM in 0.1 M potassium phosphate buffer with 50% v/v EtOH) produced upon continuous image acquisition over the course of 1 h. Reported values represent mean PA signal observed after subtracting background signal produced from tissue-mimicking phantom.
as §1

Data set [4] relates to 4T1 murine mammary carcinoma cells. Kind of data set: Ratiometric fluorescence microscopy in living cells. The data set is classed as cell-based. As to conditions: 4T1 cells, epifluorescence microscope Cy7/Cy5, after 6 hours. Here is the method: After establishing excellent selectivity and responsiveness to hypoxic conditions in vitro, the performance of HyP-1 in living cells was evaluated before moving to in vivo studies. 4T1 murine mammary carcinoma cells were treated with a […] solution of HyP-1 and incubated at 37° C. either in a standard atmosphere containing 20% oxygen (normoxic conditions), or in an airtight chamber containing <0.1% oxygen (hypoxic conditions). Imaging was performed at 2, 4 and 6 hours using an epifluorescence microscope equipped with Cy5 and Cy7 filter sets to visualize HyP-1 and red-HyP-1, respectively (FIG. 5a).
Authenticated 4T1 cells were purchased from ATCC. Cells were grown in RPMI 1640 medium supplemented with 10% fetal bovine serum. Cells were cultured at 37° C. in 5% CO2 and 20% 02 for normoxic conditions. Hypoxic cell culture was performed by incubating cells in a sealed container with a Mitsubishi AnaeroPack™ anaerobic gas generator. Hypoxic conditions were verified with the use of a Mitsubishi RT Anaero-Indicator.
For fluorescence microscopy, cells were plated in 4-well chamber slides at an initial density of 1×10^4 cells/mL and allowed to grow until 60-80% confluent (approximately 6 days). Media was removed and cells were washed with PBS. […] Images were obtained using Cy5 and Cy7 filter cubes and analysed using ImageJ software (Version 1.50i).

Data set [5] in a line: PA imaging of compound solutions in tissue-mimicking phantoms. The data set is classed as physicochemical. As to conditions: solutions in tissue-mimicking phantom. As for the experimental part: FIG. 3. Photophysical characterization of HyP-1 and red-HyP-1. (a) Normalized absorbance (dashed) and emission (solid) spectra of HyP-1 (left) and red-HyP-1 (right). (b) PA spectra of HyP-1 and red-HyP-1. PA images of HyP-1 and red-HyP-1 solutions (10 μM in 0.1 M potassium phosphate buffer (pH 7.4) with 50% EtOH co-solvent) in tissue-mimicking phantoms were obtained, and the mean PA signal corresponding to each compound was plotted as a function of wavelength. Results are presented as mean±SD (n=3). (c) PA signal corresponding to various concentrations of red-HyP-1. […]
The significant change in the absorbance profiles of these compounds can be attributed to disruption of the electron donating capability of the aniline in its N-oxide form. This chemical modification is akin to protonation of the aniline, which has been previously shown to result in similar shifts in the absorbance. The 90 nm separation in absorbance is essential to the probes design as it allows us to readily distinguish each species by selective excitation and subsequent detection using both PA and fluorescence imaging. […] Additionally, because HyP-1 and red-HyP-1 have spectrally resolved emission profiles, ratiometric imaging can be performed by determining the ratio of their fluorescence emission intensities. […]

Consider `CC[N+]([O-])(CC)c1ccc(-c2cc(-c3ccccc3)c3n2[B-](F)(F)[N+]2=C(c4ccc(OC)cc4)C=C(c4ccccc4)C2=N3)cc1` [HyP-1, 4-(5,5-difluoro-7-(4-methoxyphenyl)-1,9-diphenyl-5H-5λ^4,6λ^4-dipyrrolo[1,2-c:2′,1′-f][1,3,5,2]triazaborinin-3-yl)-N,N-diethylaniline oxide], for which the ratiometric turn-on in data set [1] (20 μM FeSO4 + 1 mM GSH, HEPES buffer, 1 h) was found to be 35 fold; in data set [1] (20 μM FeSO4 in HEPES buffer, 1-hour incubation), 8 fold. For the same molecule, the “decomposition in human plasma” value in data set [2] was “no substantial decomposition”. The “PA intensity during continuous acquisition (photostability)” value in data set [3] is listed as “remained unchanged”. In data set [4], the “ratiometric fluorescence response, hypoxic versus normoxic control” value was 1.6 fold. In addition, in data set [5], the “PA signal at 770 nm” value was “no signal”.
As for `CCN(CC)c1ccc(-c2cc(-c3ccccc3)c3n2[B-](F)(F)[N+]2=C(c4ccc(OC)cc4)C=C(c4ccccc4)C2=N3)cc1` [Red-HyP-1, 4-(5,5-difluoro-7-(4-methoxyphenyl)-1,9-diphenyl-5H-5λ^4,6λ^4-dipyrrolo[1,2-c:2′,1′-f][1,3,5,2]triazaborinin-3-yl)-N,N-diethylaniline], the “PA intensity during continuous acquisition (photostability)” value in data set [3] is listed as “remained unchanged”. Further, the “PA signal at 770 nm” value in data set [5] was “strong PA signal”.

The values are drawn from patent US11292803B2, “Bioreducible N-oxide-based probes for imaging of hypoxia” (THE BOARD OF TRUSTEES OF THE UNIVERSITY OF ILLINOIS, priority 2018, dated 2022).
